Biological target: T1, Bromodomain 2, 3 and 4 (BRD2, BRD3 and BRD4)
T1 construct: fused on or other part: six-His tag at the N-terminus
Assay: Fluorescence Anisotropy Binding Assay
Design: species or system Human
Conditions: result stated for one or more of BRD2, BRD3 and BRD4, target not specified per compound
Method: All data was normalized to the mean of 16 high and 16 low control wells on each plate. A four parameter curve fit of the following form was then applied:
y=a+((b−a)/(1+(10̂x/10̂c)̂d)
The His-tagged Bromodomain was extracted from E. coli cells using 0.1 mg/ml lysozyme and sonication. […] Further purification was completed by Superdex 200 prep grade size exclusion column. Purified protein was stored at −80 C in 20 mM HEPES pH 7.5 and 100 mM NaCl.

Structure (SMILES)	pIC50 in one or more of the BRD2, BRD3 and BRD4 assays
Cc1nnc2n1-c1ccccc1C(c1ccccc1)=NC2NC(=O)OCc1ccco1 (centres unmarked) [Example 44, 2-furanylmethyl (1-methyl-6-phenyl-4H-[1,2,4]triazolo[4,3-a][1,4]benzodiazepin-4-yl)carbamate]	≥ 5.0

System: not given
Assay: not given
Conditions: not given

Structure (SMILES)	melting point [°C]
COc1ccc(C2=NC(NC(=O)Nc3ccc(C(=O)c4ccccc4)cc3)c3nnc(C)n3-c3ccccc32)cc1 (centres unmarked)	225
Cc1nnc2n1-c1ccc(Br)cc1C(c1ccccc1F)=NC2NC(=O)OCc1ccccc1 (centres unmarked) [Example 17, phenylmethyl [8-bromo-6-(2-fluorophenyl)-1-methyl-4H-[1,2,4]triazolo[4,3-a][1,4]benzodiazepin-4-yl]carbamate]	160 to 170
Cc1nnc2n1-c1ccccc1C(c1ccccc1)=NC2NC(=O)Nc1ccccc1 (centres unmarked) [Example 70, N-(1-methyl-6-phenyl-4H-[1,2,4]triazolo[4,3-a][1,4]benzodiazepin-4-yl)-N′-phenyl urea]	> 260
COc1ccc2cc(C(=O)NC3N=C(c4ccccc4)c4ccccc4-n4c(C)nnc43)[nH]c2c1 (centres unmarked) [Example 53, 6-(methyloxy)-N-(1-methyl-6-phenyl-4H-[1,2,4]-triazolo[4,3-a][1,4]benzodiazepin-4-yl)-1H-indole-2-carboxamide]	160 to 170

System: TNFα levels in LPS stimulated whole blood
Assay: LPS Stimulated Whole Blood Measuring TNFα Levels Assay
Type: cell-based
Conditions: LPS final concentration 200 ng/ml, 24 hours at 37 degrees, TNFα by immunoassay, read-out: pIC50 (TNFα levels) (converted)
Method: Activation of monocytic cells by agonists of toll-like receptors such as bacterial lipopolysaccharide (LPS) results in production of key inflammatory mediators including TNFα. Such pathways are widely considered to be central to the pathophysiology of a range of auto-immune and inflammatory disorders.
Compounds to be tested are diluted to give a range of appropriate concentrations and 1 ul of the dilution stocks is added to wells of a 96 plate. Following addition of whole blood (130 μl) the plates are incubated at 37 degrees (5% CO2) for 30 min before the addition of 10 ul of 2.8 ug/ml LPS, diluted in complete RPMI 1640 (final concentration=200 ng/ml), to give a total volume of 140 μl per well. After further incubation for 24 hours at 37 degrees, 140 μl of PBS are added to each well. The plates are sealed, shaken for 10 minutes and then centrifuged (2500 rpm×10 min). 100 μl of the supernatant are removed and TNFα levels assayed by immunoassay (typically by MesoScale Discovery technology) either immediately or following storage at −20 degrees. Dose response curves for each compound was generated from the data and an IC50 value was calculated.

Structure (SMILES)	IC50 [µM]
CCOC(=O)NC1N=C(c2ccc(Cl)cc2)c2ccccc2-n2c(C)nnc21 (single isomer, unassigned; (+)) [Example 28, (+)-ethyl [6-(4-chlorophenyl)-1-methyl-4H-[1,2,4]triazolo[4,3-a][1,4]benzodiazepin-4-yl]carbamate]	≤ 10
Cc1nnc2n1-c1ccccc1C(c1ccccc1)=NC2NC(=O)/C=C/c1ccccc1 (centres unmarked) [Example 64, (2E)-N-(1-methyl-6-phenyl-4H-[1,2,4]triazolo[4,3-a][1,4]benzodiazepin-4-yl)-3-phenyl-2-propenamide]	≤ 10
Cc1nnc2n1-c1ccccc1C(c1ccccc1)=NC2NC(=O)OCc1ccccc1 (single isomer, unassigned; (+)) [Example 27, (+)-phenylmethyl (1-methyl-6-phenyl-4H-[1,2,4]triazolo[4,3-a][1,4]benzodiazepin-4-yl)carbamate]	≤ 10
Cc1nnc2n1-c1ccccc1C(c1ccccc1)=NC2NC(=O)/C=C/c1ccc(F)cc1 (centres unmarked) [Example 65, (2E)-3-(4-fluorophenyl)-N-(1-methyl-6-phenyl-4H-[1,2,4]triazolo[4,3-a][1,4]benzodiazepin-4-yl)-2-propenamide]	≤ 10
CCOC(=O)NC1N=C(c2ccccc2)c2ccccc2-n2c(C)nnc21 (single isomer, unassigned; (+)) [Example 32, (+)-ethyl 1-methyl-6-phenyl-4H-[1,2,4]triazolo[4,3-a][1,4]benzodiazepin-4-ylcarbamate]	≤ 10
COc1ccc2cc(C(=O)NC3N=C(c4ccccc4)c4ccccc4-n4c(C)nnc43)[nH]c2c1 (centres unmarked) [Example 53, 6-(methyloxy)-N-(1-methyl-6-phenyl-4H-[1,2,4]-triazolo[4,3-a][1,4]benzodiazepin-4-yl)-1H-indole-2-carboxamide]	≤ 10
